Laboratory results as given in patent US10675303B2, “Extracellular matrix compositions for the treatment of cancer” (ADAPTIVE BIOLOGIX, INC., priority 2008, dated 2020).

Assays:
[1] = tested on: MDA435 cells; assay: Tumor growth of MDA435 cells in nude mice; type: in vivo
Method: (§1) Tumor growth of B16 cells, C6 cells, or MDA435 cells in the presence or absence of ECM, and with or without cisplatin, were examined in nude mice. Cells, ECM and Cisplatin were injected simultaneously subcutaneously in the lower haunch of a nude mouse. Tumor growth was followed over time using photography, measurements of length and width, then finally by weight. FIGS. 8 and 9 show the growth of tumors from C6 cells in nude mice in the presence (FIG. 9) and absence (FIG. 8) of ECM on day 14 post-injection. FIGS. 10 and 11 show the growth of tumors from C6 cells in nude mice in the presence of ECM with cisplatin (FIG. 10) and cisplatin without ECM (FIG. 11) of ECM on day 14 post-injection.

[2] = tested on: C6 cells; assay: Tumor growth of C6 cells in nude mice; type: in vivo; conditions: compared to no treatment control (FIG. 12)
Method: as §1

N.N.[Cl][Pt][Cl] [cisplatin]
tumor growth of MDA435 cells over 25 days ([1]; nude mice, compared to no treatment control (FIG. 14)): reduction in tumor mass to zero | tumor growth of MDA435 cells in nude mice ([1]; versus no treatment control with palpable tumors (FIGS. 13A-D)): reduced or no tumor growth | tumor growth of C6 cells over 18 days [2]: no growth
